These results are taken from a melting point compilation (Tetko et al.; mined from patent text by program, amines drawn as free bases though some values may be those of a salt).

A value given as a limit tells only on which side of the number the result lay.

In general, melting point refers to the temperature, or range, at which the solid turns liquid. In the case of `COc1nc(Cl)cc2nc(S(=O)(=O)Nc3nn(C)cc3Br)nn12`, the melting point lay in the range of 230 to 232 °C.

As for `O=C(O)C1c2cc(Br)ccc2OCc2ncccc21` (stereo not drawn), the melting point fell in the range of 126 to 127 °C.

`CC(=O)OC1CCC2(C)C(=CCC3C2CC(c2cccnc2)C2(C)C=CCC32)C1` (stereo not drawn) yielded a melting point of 144 to 145 °C.

Consider `CCOC(=O)c1[nH]c2ccccc2c1-c1ccc([N+](=O)[O-])cc1`, for which the melting point lay in the range of 218 to 220 °C.

In the case of `N#CC(=O)c1ccccc1Br`, the melting point was 64 °C.

Molecule `Cc1cc(C(=O)NCO)ncc1C(c1c(F)ccc(F)c1F)S(=O)(=O)c1ccc(F)c(F)c1` (stereo not drawn) came in with a melting point of 119 to 120 °C.

`CC(Oc1ccc([N+](=O)[O-])cc1)c1nnc(N=C=O)s1` (stereo not drawn) gave a melting point of 215 to 221 °C.

With `Cc1c(C)c2c(c(C)c1N)CC(C)(CN1CCN(C(=O)CC(c3ccccc3)c3ccccc3)CC1)O2` (stereo not drawn), the melting point lay in the range of 77 to 78 °C.

The molecule `CCOC(=O)c1cc(SC#N)c(-c2ccc(Cl)cc2)[nH]1` came in with a melting point of 138 to 141 °C.

`COc1ccc(-c2nn(CC(C)C)c(=O)c(CO)c2-c2ccc(OC)cc2)cc1` registered a melting point of 121 to 122 °C.

`CC(=O)Nc1ccc2c(c1)Cc1cc(=O)[nH]nc1-2` showed a melting point of more than 300 °C.

As for `Cc1cc(O)c(F)cc1Br`, the melting point lay within 44 to 46 °C.

As to `CN1CCN(c2ccc3c(=O)c(C(=O)O)cn4c3c2CCC4)CC1`, the melting point fell in the range of 278 to 280 °C.

In turn, `CCC1(CC)c2cc(-c3ccc(N(c4ccccc4)c4ccccc4)cc3)ccc2-c2ccc(-c3nc4ccccc4s3)cc21` registered a melting point of 206 to 208 °C.

`COc1ccc(-c2cccc3ccccc23)cc1OC1CCCC1` registered a melting point of 123 to 125 °C.

The molecule `CCCCn1c(=O)c(NC(=O)Nc2c(C(C)C)cccc2C(C)C)c(-c2cccc(OCCO)c2)c2cccnc21` had a melting point of 106 to 110 °C.

In the case of `CC(CC(F)(F)F)C(=O)Nc1cnn(-c2cccnc2)c1` (stereo not drawn), the melting point lay within 140 to 145 °C.

For `Cc1cc(-c2cc(O)c(SCc3ccccc3)c(=O)o2)cc(C)c1O[Si](C)(C)C(C)(C)C`, the melting point lay in the range of 137 to 139 °C.

Regarding `CC(C)C(C(=O)O)c1ccc(Br)cc1` (stereo not drawn), the melting point lay in the range of 97 to 98 °C.

`CC#CCOc1ccc(S(=O)(=O)N(C)C(C(=O)NO)c2ccc(OCCCNC(=O)OCC)cc2)cc1` (stereo not drawn) displayed a melting point of 60 to 62 °C.

Turning to `Nc1c(F)c(N2CCNCC2)cc2c1c(=O)c(C(=O)O)cn2C1COC1`, the melting point lay within 244 to 246 °C.

The molecule `COC(=O)C=CC=CCSc1ccc(Cl)cc1` showed a melting point of 75 to 77 °C.

`Cc1nc2c(Cc3ccccc3)cnn2c(=O)[nH]1` returned a melting point of 225 °C.

`COc1cccc(NC(=O)c2ccc(C)cc2)c1C(C)=O` returned a melting point of 48 °C.

Molecule `COc1ccc2nc(-c3ccc(Cl)cc3)cn2c1` had a melting point of 148 to 149 °C.

The molecule `CC(C)(C)[Si](C)(C)OC1CCN(S(=O)(=O)c2ccc(N3CCCCC3)cc2)C1=O` (stereo not drawn) showed a melting point of 111 to 112 °C.

For `O=C(c1ccc(NC(=O)C(O)(C(F)F)C(F)F)cc1)c1ccccn1`, the melting point was 158 to 161 °C.

With `COc1cc(CCN)ccc1O`, the melting point was in the range of 156 to 158 °C.

In the case of `N#Cc1ccc(-c2ccc(OCCCCBr)cc2)cc1`, the melting point is 62.5 to 64 °C.

For the molecule `CC(C)(C)c1ccc(-c2cc3ccc(C(=O)O)cc3o2)cc1`, the melting point was 294 °C.

Consider `CCOC(=O)C(C#N)=Cc1ccc(NC(C)=O)cc1`, for which the melting point worked out at 187 °C.

For `CC1=CC2=C(N3CN(N4CCCC4)C=C3N=N2)N(c2cc(Cl)ccc2Cl)C1`, the melting point came to 157 °C.

In turn, `Nc1ccc(-c2cc(OCC(=O)N3CCOCC3)c3ccccc3n2)cc1` registered a melting point of 174 °C.

Molecule `CCO[C@@H]1C[C@@H](C(=O)NC)N(S(=O)(=O)c2ccc(Cl)c(CBr)c2Cl)C1` came in with a melting point of 122 °C.

The molecule `CN(C)C=Nc1[nH]nc(NCc2ccccc2)c1C#N` returned a melting point of 197 to 200 °C.

`CCOC(=O)n1nc(-c2cccc(OC)c2)nc1-c1ccccc1CC` came in with a melting point of 80 to 82 °C.

In turn, `O=C(O)c1ccc(-n2c(SCc3ccc(Cl)cc3)nc3ccc(Cl)cc32)cc1` gave a melting point of 265 to 266 °C.

Regarding `Cc1nc(N2CCN(Cc3ncoc3-c3ccccc3)C2=O)sc1C(=O)NCc1cccnc1`, the melting point was in the range of 78 to 81 °C.

Molecule `COC(=O)C=Cc1ccc(OCc2nc(-c3ccccc3)oc2C)c(F)c1` came in with a melting point of 167 to 168 °C.

As to `CCNc1cc(-c2c[nH]c(S)n2)ccn1`, the melting point is more than 260 °C.

As to `CC(C)(C)OC(=O)N1CCc2c(n(CCOc3ccccc3)c3c(Cl)c(Cl)ccc23)CC1`, the melting point lay within 138 to 140 °C.

Molecule `CCCCCc1cnc(-c2ccc(F)cc2)nc1` gave a melting point of 28.6 °C.

As to `Cn1ccc(-c2ccc(C(=O)N3Cc4cccnc4Nc4ccccc43)c(Cl)c2)n1`, the melting point was in the range of 196 to 197 °C.

With `OC[C@H]1CCCC[C@H]1Nc1nccc(-n2nnc3ccccc32)n1`, the melting point is 206 to 208 °C.

Molecule `CC(=O)OC1CSC(Oc2cc(C)c(Cl)cc2-c2ccno2)C(OC(C)=O)C1OC(C)=O` (stereo not drawn) registered a melting point of 203 °C.

As for `O=C(NC1Cc2ccccc2C1)C(F)(F)F`, the melting point was determined as 160 °C.

The molecule `CC1COc2cc(NC(=O)OCc3ccccc3)ccc2N1C(=O)OCc1ccccc1` (stereo not drawn) registered a melting point of 104 to 106 °C.

Regarding `COc1nc2cc([N+](=O)[O-])c(C)c(C(=O)N(C)C)c2nc1OC`, the melting point is 138 to 141 °C.

Take `c1ccc2c(c1)CC(CN1CCN(c3ccc4ccoc4c3)CC1)C2`: the melting point was 168 to 170 °C.

`CCCC1(C2CCCC2)Cc2cc(OCCCC(=O)O)c(Cl)c(Cl)c2C1=O` (stereo not drawn) came in with a melting point of 140 to 141 °C.

As for `CS(=O)(=O)c1ccc(-c2cnn(CC(F)(F)F)c(=O)c2Cc2ccccc2)cc1`, the melting point was in the range of 112 to 114 °C.

The molecule `COC(=O)C1Cc2c([nH]c3ccccc23)C(c2ccc(Cl)c(Cl)c2)N1C(=O)CCl` (stereo not drawn) displayed a melting point of 163 to 165 °C.

Molecule `CCOC(=O)[C@@H]1C[C@H]2C[C@H](COCC#N)CC[C@H]2CN1C(=O)OC` (racemic) returned a melting point of 263 °C.

Regarding `Cc1cccc(C)c1NC(=O)CN1CCN(C=O)CC1`, the melting point lay in the range of 139 to 140 °C.

`Cc1cc(-c2ccc(Cl)c(Cl)c2)nc(-c2ccnc(-c3ccc(S(N)(=O)=O)s3)c2)n1` gave a melting point of 267 °C.

In the case of `COc1ccc2c(c1)N(c1ccccc1F)C(=O)C2(C)NC(=O)OCc1ccccc1` (stereo not drawn), the melting point is 149 to 151 °C.

Molecule `CNC(=O)N(c1ccc(OC(F)(F)F)cc1)c1nc(OCC(F)(F)F)cc(OCC(F)(F)F)n1` yielded a melting point of 123 to 125 °C.

With `Cc1nc2cc(NC(=O)c3ccccc3O)ccc2o1`, the melting point lay within 202 to 206 °C.

For the molecule `COc1ccc(CCNC(=O)Cc2ccc(-c3ccccc3)cc2)cc1OC`, the melting point was 103 to 105 °C.

Turning to `CCOC(=O)CCc1nc(-c2ccc(Cl)cc2)co1`, the melting point was in the range of 65 to 66 °C.

As for `CCC1(O)NC(=O)C2(c3ccc(Cl)cc3)CC12` (stereo not drawn), the melting point was 117 to 124 °C.

In turn, `CC(C)CCCC(C)C1CCC2C3CC4(OCCO4)C4CCCC(O)C4(C)C3CCC12C` (stereo not drawn) came in with a melting point of 96 to 98 °C.

For `Cc1[nH]cnc1CC1CCc2c(C)c3cc(Cl)ccc3n2C1=O` (stereo not drawn), the melting point lay within 244 to 246 °C.
